Patent EP0723771A2, “Agent and process for permanent hair waving” (Wella Aktiengesellschaft, priority 1995, dated 1996)

Settings: lower pH values (pH = 7 or 8); conclusion from Tabelle 1
Experimental: Zum Vergleich der Wellwirksamkeit wurden an blondierten Haarsträhnen aus mitteleuropäischem Haar Wellstabilitäten ermittelt. Hierzu wurden 16,5 Zentimeter lange, aus etwa 100 Haaren bestehende Haarsträhnen auf Wickler mit einem Innendurchmesser von 3 Millimetern gewickelt und mit einer 87 mmol Reduktionsmittel pro 100 g Lösung enthaltenden, auf den jeweiligen pH-Wert eingestellten, Reduktionsmittellösung bei 50 Grad Celsius 20 Minuten lang behandelt, wobei eine Menge von 1,2 ml Reduktionsmittellösung pro Gramm Haarsträhne verwendet wurde.
Anschließend wurde das Haar mit einer 3-prozentigen wäßrigen Wasserstoffperoxidlösung oxidativ nachbehandelt, getrocknet und sodann 4 Stunden lang in Wasser ausgehängt. Im Anschluß hieran wurde die Wellstabilität bestimmt.
Die Wellstabilitäten wurden hierbei nach der folgenden Formel ermittelt: [formula] I0 = Gesamtlänge der nicht umgeformten, gestreckten Strähne (16,5 Zentimeter) It = Länge der abgewickelten, ausgehängten Strähne nach 240 Minuten I1 = Länge der umgeformten, aufgewickelten Strähne bei einem Wickelinnendurchmesser von 3 mm (I1 = 35 Millimeter)
Als Reduktionsmittel wurden Cysteamin (Formel (I) mit R = H) und N-Mesylcysteamin (Formel (I) mit R = SO2CH3) sowie als Vergleichsstandard eine auf pH = 9 eingestellte Glycerinmonothioglycolat-Lösung (Wellstabilität = 100 %) verwendet. […]

Structure (SMILES): CS(=O)(=O)NCCS [R = -SO2-CH3, N-2-Mercaptoethylmethansulfonsäureamid]
- Wellwirksamkeit gegenüber Cysteamin: signifikant höhere Wellwirksamkeit
